Results: patent US20210293825A1, “METHODS FOR PRECISION THERAPEUTIC TARGETING OF HUMAN CANCER CELL MOTILITY AND KITS THEREOF” (UNITED STATES GOVERNMENT AS REPRESENTED BY THE DEPARTMENT …, priority 2018, published 2021)

Key:
[1] = system: PC3-M cells; experiment: Boyden chamber cell invasion assay, PC3-M cells; assay type: cell-based, human
Method: Following the synthetic strategy outlined in FIG. 1a, 4′,5,7-trihydroxyisoflavone was used as the chemical scaffold. […] Note, demethylation within the cell cannot be predicted. Therefore, the loss of function was considered to be informative for methylated compounds. […] This adds further evidence of the importance of the C4′-hydroxyl for activity. […] For cell invasion, PC3-M cells were treated with 10 μM compound for a total of 3 days, and cell invasion assays were run at the end of the 3 day period, in the presence of compound. Values are the mean±SEM of three separate experiments, each run in replicates of N=3. […] Values are the mean±SEM of a single experiment, in replicates of N=4, repeated at least once (also N=4). […] The initial structure-activity relationship (SAR) data informed the second round of compound synthesis. […] Compared to 4′,5,7-trihydroxyisoflavone, KBU2046 is non-planar, lacks hydroxyl groups, and particularly those that mediate ER binding, is halogen-substituted, and has a distinctly different biological profile. These characteristics place KBU2046 in a chemically distinct class, compared to the starting compound.
Cell Invasion Assays. Boyden chamber cell invasion assays were performed as previously described^9, using either denatured collagen (BD Biosciences) or type IV human collagen (BD Biosciences), with the experiments repeated, each in N=4 replicates. In some experiments, as indicated, cells were transfected with an expression plasmid, using Lipofectamine 2000™ (Invitrogen), or with siRNA, using DharmaFect Duo (Thermo Scientific) and co-transfected with β-Galactosidase (Plasmid pCMV⋅SPORT-βgal; Life Technology).
The initial round of synthesis was designed to examine the removal of individual chemical fragments. In this manner, the importance of these functional groups in mediating efficacy (inhibition of cell invasion) could be determined. […] Initial assays were performed with PC3 and PC3-M cells. However, as these studies yielded similar findings, subsequent screening assays utilized only PC3-M cells. In designing chemical synthetic routes, priority was given to efficacy and toxicity parameters. […] These additional design features included removal of fragments that mediated genistein binding to the estrogen receptor (ER), as determined by ER-genistein 3D x-ray crystal structures (Protein Data Base IDs: 1X7R and 1X7J, for crystal structures of ERα and ERβ with bound genistein, respectively). These features also included removal of chemical fragments that are considered to increase susceptibility to rapid metabolism, for example by the cytochrome P450 (CYP) pathway. The final feature involved incorporation of chemical characteristics previously shown to be associated with effective drugs and which together generally impart more favorable pharmacologic properties, including those described by Lipinski et al. (Lipinski, C. A. et al., Adv Drug Deliv Rev 46, 3-26 (2001)).

[2] = system: human prostate, breast, colon and lung cancer cells; experiment: Single cell migration (motility) assay; assay type: cell-based; settings: 10 μM, 3 days
From the text: FIG. 1a is a schematic flow of probe synthesis and development strategy. […] Values are mean±SEM of a single experiment in replicates of N=4, with similar findings in multiple separate experiments (also N=4). […] Values are mean±SEM of a single experiment in replicates of N=24, with similar findings in a separate experiment (also N=24). *Denotes Student's t test P value <0.05, compared to controls. […] Values are mean±SEM from N>2 separate experiments, each in replicates of N=3. […] Values are the mean±SD number of total, CFU-GM, CFU-GEMM or BFU-E colonies at 14 days after treatment with KBU2046, from a single experiment in replicates of N=2. […] Values are the mean±SD of a single experiment, with similar results seen in a separate experiment, both in replicates of N=2.
Cell Migration Assays. Single cell motility assays were conducted by adding 10^4 cells to 35 mm tissue culture dishes (BD Falcon) coated with collagen I (BD Biosciences), incubating at 37° C. in 5% CO2, performing time-lapse imaging using a Biostation (Nikon Instruments), tracking the path of N≥35 cells using ImageJ software and the Manual Tracker plug-in, and using Chemotaxis and Migration Tool plug-in for data analysis.

[3] = system: human breast cancer LM2-4H2N cells; experiment: Breast cancer orthotopic implantation / resection survival model; assay type: in vivo, SCID-Beige mice; settings: post-surgery adjuvant, 25 mg/kg daily oral gavage five times/week
Method: Cohorts of N=12 athymic mice bearing human PCa PC3-M cell orthotopic implants (a), or of N=5 non-tumor bearing athymic mice (b), were treated with KBU2046 incorporated into chow, and resultant lung metastasis (a) or plasma KBU2046 concentration (b) measured. Values are the mean±SEM. The relationship between dose and metastasis was evaluated by two-sided ANOVA (a). FIG. 2c a comprehensive characterization of KBU2046 pharmacokinetics. CD1 mice were dosed with 100 mg KBU2046/kg via oral gavage or intravenous injection (iv), and blood collected at the indicated time points (data from mice dosed at 25 mg/kg are in FIG. 12, and corroborate 100 mg/kg findings). For each route and time point, N=3 mice were sampled. Individual data points are the resultant plasma concentrations from individual mice, and are the mean of N=2 measurements. The dotted horizontal line denotes a concentration of 24 nM, which was the concentration of KBU2046 measured in the blood of mice whose metastasis were suppressed by 92% (a-b). […] Mice were orthotopically implanted with human breast cancer LM2-4H2N cells, the resultant primary tumors resected, and adjuvant treatment begun with KBU2046 by daily oral gavage five times/week. The survival of N=6 mice receiving vehicle was compared to that of N=6 mice receiving 25 mg/kg KBU2046 by the log rank (Mantel-Cox) test.
Breast cancer: orthotopic implantation. […]

[4] = system: RAF1 in PC3 and PC3-M cells; experiment: RAF1-Ser338 phosphorylation in prostate cancer cells (Western blot); assay type: cell-based, human; settings: 10 μM
Method: PC3 and PC3-M human prostate cancer cells were treated with 10 μM KBU2046 for the indicated lengths of time; control cells (C) were treated with vehicle. Levels of RAF1-Ser^338 phosphorylation (pRaf1), total RAF1, and GAPDH proteins were then measured by Western blot.

## O=C1c2ccccc2OCC1c1ccc(F)cc1 (racemic) [KBU2046, (±)-3(4-fluorophenyl)chroman-4-one]
[1]; 10 μM compound, 3 days
  effect on cell invasion: anti-invasive efficacy at least equal to that of the starting compound
[1]; (S226A)-HSP90β transfected PC3-M cells
  inhibition of cell invasion: does not further inhibit cell invasion
[1]; (S226D)-HSP90β transfected PC3-M cells
  inhibition of cell invasion: did not significantly inhibit cell invasion
[1]; PC3-M cells, ±TGFβ
  anti-invasion efficacy under TGFβ-stimulated invasion: retains efficacy
[1]; VC and WT-HSP90β transfected PC3-M cells
  inhibition of cell invasion: significantly inhibited invasion
[1]; siRNA-mediated HSP90β knockdown
  efficacy on cell invasion: abrogated KBU2046 efficacy
[1]; vector control (VC) transfected PC3-M cells
  inhibition of cell invasion: significantly inhibits invasion
[2]
  inhibition of cell migration: inhibited the migration
[3]
  survival: significantly prolonged the survival
[4]
  levels of phospho-RAF1: decreased levels of phospho-RAF1 in a time-dependent manner
